Reference: patent US12421253B2 (Mirati Therapeutics, Inc., priority 2020, dated 2025)

Legend:
[1] = biological target: T1, KRas^G12D (Homo sapiens, UniProt P01116, G12D); assay: KRas binding assay (TR-FRET displacement of Cy5 labelled tracer)
T1 construct: […]; biotin (biotinylated); purchased Accelegan Inc
Experimental: (§6) The ability of a compound to bind to KRas was measured using a TR-FRET displacement assay. […] After a 60-minute incubation at room temperature, the reaction was measured using a BMG LABTECH CLARIO star Plus via TR-FRET. […] The POC values were fit to a 4-parameter IC50 equation and the IC50 value reported.

[2] = biological target: T2, KRas^G12V (Homo sapiens, UniProt P01116, G12V); assay: as above
T2 construct: […]; biotin (biotinylated); purchased Accelegan Inc
Experimental: as §6

[3] = biological target: T3, KRas^G12R (Homo sapiens, UniProt P01116, G12R); assay: as above
T3 construct: […]; biotin (biotinylated); purchased Accelegan Inc
Experimental: as §6

[4] = system: NCI-H460 (Q61H) cells, phospho-ERK; assay: Inhibition of KRas-mediated phosphorylation of ERK (phospho-ERK/GAPDH antibody detection, LI-COR); type: cell-based; settings: Homo sapiens, 3 hours
Experimental: (§1) AsPC-1 (G12D, ATCC CRL-1682), A549 (G12S, ATCC CCL-185), HCT116 (G13D, ATCC CCL-247) cells were grown in DMEM medium supplemented with 10% fetal bovine serum and Penicillin/Streptomycin. NCI-H358 (G12C, ATCC CRL-5807), NCI-H460 (Q61H, ATCC HTB-117), NCI-H727 (G12V, ATCC CRL-5815), MKN1 (WTdep, JCRB JCRB0252), PSN-1 (G12R, ATCC CRM-CRL-3211) cells were grown in RPMI medium supplemented with 10% fetal bovine serum, 10 mM HEPES, 10 mM Sodium Pyruvate, and Penicillin/Streptomycin. Cells were plated in black well clear bottom tissue culture treated 96 well plates (Corning, 3904) at a density of 20,000 cells/well and allowed to attach for 12-14 hours. Diluted compounds were then added in a final concentration of 0.5% DMSO. After 3 hours, 50 μL of 4.0% formaldehyde was added and the plates incubated at room temperature for 20 minutes. The plates were then dumped and permeabilized with 150 μL of ice cold 100% methanol for 10 minutes. Non-specific antibody binding to the plates was blocked using 100 μL Odyssey blocking buffer (LI-COR Biosciences, 927-60010) for 1 hour at room temperature.
(§2) The amount of phospho-ERK was determined using an antibody specific for the phosphorylated form of ERK and compared to the amount of GAPDH. Primary antibodies used for the detection were added as follows: Phospho-ERK (Cell Signaling CS-9101) diluted 1:500 and GAPDH (Millipore MAB374) diluted 1:5000 in Odyssey blocking buffer+0.05% Tween 20. The plates were incubated overnight at 4 C. The plates were washed 3× with 150 uL PBS+0.1% Tween 20.
(§3) Secondary antibodies used to visualize primary antibodies were added as follows: Goat Anti-Rabbit-800 (LI-COR, 926-32211) and Goat Anti-Mouse-680 (LI-COR, 926-68070) diluted 1:800 both in Odyssey blocking buffer+0.05% Tween 20 and were incubated for 1 hour at room temperature. The plates were washed 3× with 150 uL PBS+[…]. Plates were imaged dry on a Li—COR Odyssey CLX plate reader.
(§4) The phospho-ERK (Thr202/Tyr204) signal was normalized to the GAPDH signal for each well and percent of DMSO control values were calculated. IC50 values were generated using a 4-parameter fit of the dose response curve.

[5] = system: AsPC-1 (G12D) cells, phospho-ERK; assay: as above; type: cell-based; settings: Homo sapiens, ASPC1, 3 hours
Experimental: as §1, §2, §3, §4

[6] = system: NCI-H727 (G12V) cells, phospho-ERK; assay: as above; type: cell-based; settings: Homo sapiens, 3 hours
Experimental: as §1, §2, §3, §4

[7] = system: MKN1 cells, pERK; assay: Inhibition of KRas phosphorylation of ERK (Cisbio HTRF Advanced pERK assay); type: cell-based; settings: Homo sapiens, MKN-1, 3 h, read-out: Inhibition (HTRF IC50 nM) of KRas-mediated Phosphorylation of ERK, MKN1
Method in brief: (§5)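 Overnight-plated cells (RPMI, 10% FBS); compound 3 h, 37 °C, 10 uM top, 3-fold x10, 0.8% DMSO; min ctrl trametinib 0.2 uM; lysis 40 min 4 °C; pERK by HTRF, 2 h RT.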

[8] = system: PSN1 cells, pERK; assay: as above; type: cell-based; settings: Homo sapiens, PSN1, 3 h, read-out: Inhibition (HTRF IC50 nM) of KRas-mediated Phosphorylation of ERK, PSN1
Method in brief: as §5

T1 sequence (P01116 1-169 isoform P01116-2 G12D): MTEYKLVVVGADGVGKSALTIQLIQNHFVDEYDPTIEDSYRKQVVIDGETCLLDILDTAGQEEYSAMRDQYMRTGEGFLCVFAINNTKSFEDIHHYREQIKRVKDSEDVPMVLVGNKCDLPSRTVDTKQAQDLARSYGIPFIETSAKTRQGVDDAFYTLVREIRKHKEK
T2 sequence (P01116 1-169 isoform P01116-2 G12V): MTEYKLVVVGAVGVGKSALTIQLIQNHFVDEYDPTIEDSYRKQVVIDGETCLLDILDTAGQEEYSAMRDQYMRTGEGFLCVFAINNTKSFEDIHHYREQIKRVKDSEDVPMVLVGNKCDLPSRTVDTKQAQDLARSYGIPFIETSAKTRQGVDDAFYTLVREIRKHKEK
T3 sequence (P01116 1-169 isoform P01116-2 G12R): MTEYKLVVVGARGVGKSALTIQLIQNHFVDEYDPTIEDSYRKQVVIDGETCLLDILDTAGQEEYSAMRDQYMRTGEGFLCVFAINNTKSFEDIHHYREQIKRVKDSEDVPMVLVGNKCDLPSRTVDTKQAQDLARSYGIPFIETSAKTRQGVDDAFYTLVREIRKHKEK

**Q.** Which results are given for `CCc1c(F)ccc2cc(O)cc(N3CCc4c(nc(OC[C@@]56CCCN5C[C@H](F)C6)nc4N4CCCC(O)(C(F)F)C4)C3)c12` (stereo partly drawn) [Example 32, 3-(difluoromethyl)-1-(7-(8-ethyl-7-fluoro-3-hydroxynaphthalen-1-yl)-2-(((2R,7aS)-2-fluorohexahydro-1H-pyrrolizin-7a-yl)methoxy)-5,6,7,8-tetrahydropyrido[3,4-d]pyrimidin-4-yl)piperidin-3-ol]?
**A.** IC50 [1]: ≤ 2 nM; IC50 [2]: ≤ 2 nM; IC50 [3]: 3 nM; IC50 [4]: 381 nM; IC50 [5]: 624 nM; IC50 [6]: 1090 nM; IC50 [7]: 31 nM; IC50 [8]: 1540 nM

**Q.** Which IC50 [1] does the source give for `CCc1c(F)ccc2cc(O)cc(N3CCc4c(nc(OC[C@@]56CCCN5C[C@H](F)C6)nc4N4CCCC(n5cccn5)C4)C3)c12` (stereo partly drawn) [Example 67, 4-(4-(3-(1H-pyrazol-1-yl)piperidin-1-yl)-2-(((2R,7aS)-2-fluorohexahydro-1H-pyrrolizin-7a-yl)methoxy)-5,6-dihydropyrido[3,4-d]pyrimidin-7(8H)-yl)-5-ethyl-6-fluoronaphthalen-2-ol] here?
**A.** 11 nM

**Q.** What about the IC50 [2] of the same molecule?
**A.** 7 nM

**Q.** What about the IC50 [3] of the same molecule?
**A.** ≤ 2 nM

**Q.** What about the IC50 [4] of the same molecule?
**A.** 225 nM

**Q.** And the IC50 [5]?
**A.** 1570 nM

**Q.** And the IC50 [6]?
**A.** 876 nM

**Q.** What about the IC50 [7] of the same molecule?
**A.** 112 nM

**Q.** What about the IC50 [8] of the same molecule?
**A.** ≥ 10000 nM

**Q.** How did the IC50 [1] turn out when `CCc1c(F)ccc2cc(O)cc(N3CCc4c(nc(OC[C@@]56CCCN5C[C@H](F)C6)nc4N4CCCC5(CC(=O)N5)C4)C3)c12` (stereo partly drawn) [Example 21, 6-(7-(8-ethyl-7-fluoro-3-hydroxynaphthalen-1-yl)-2-(((2R,7aS)-2-fluorohexahydro-1H-pyrrolizin-7a-yl)methoxy)-5,6,7,8-tetrahydropyrido[3,4-d]pyrimidin-4-yl)-1,6-diazaspiro[3.5]nonan-2-one] was run?
**A.** ≤ 2 nM

**Q.** And the IC50 [2]?
**A.** ≤ 2 nM

**Q.** And the IC50 [3]?
**A.** ≤ 2 nM

**Q.** What about the IC50 [4] of the same molecule?
**A.** 202 nM

**Q.** What about the IC50 [5] of the same molecule?
**A.** 204 nM

**Q.** And the IC50 [6]?
**A.** 466 nM

**Q.** And the IC50 [7]?
**A.** 9 nM

**Q.** What about the IC50 [8] of the same molecule?
**A.** 646 nM

**Q.** `CCc1c(F)ccc2cc(O)cc(N3CCc4c(nc(OC[C@@]56CCCN5C[C@H](F)C6)nc4N4CC5CC(O)CC4C5)C3)c12` (stereo partly drawn) [Example 35, 6-(7-(8-ethyl-7-fluoro-3-hydroxynaphthalen-1-yl)-2-(((2R,7aS)-2-fluorohexahydro-1H-pyrrolizin-7a-yl)methoxy)-5,6,7,8-tetrahydropyrido[3,4-d]pyrimidin-4-yl)-6-azabicyclo[3.2.1]octan-3-ol] was tested. Which IC50 [1] did it give?
**A.** 7 nM

**Q.** What about the IC50 [2] of the same molecule?
**A.** 52 nM

**Q.** And the IC50 [3]?
**A.** ≤ 2 nM

**Q.** And the IC50 [4]?
**A.** 1430 nM

**Q.** And the IC50 [5]?
**A.** 2360 nM

**Q.** And the IC50 [6]?
**A.** 1620 nM

**Q.** What about the IC50 [7] of the same molecule?
**A.** 159 nM

**Q.** And the IC50 [8]?
**A.** 5720 nM

**Q.** Which IC50 [1] does the source give for `CCc1c(F)ccc2cc(O)cc(N3CCc4c(nc(OC[C@@]56CCCN5C[C@H](F)C6)nc4N4CCCC(O)C4)C3)c12` (stereo partly drawn) [Example 27, 1-(7-(8-ethyl-7-fluoro-3-hydroxynaphthalen-1-yl)-2-(((2R,7aS)-2-fluorohexahydro-1H-pyrrolizin-7a-yl)methoxy)-5,6,7,8-tetrahydropyrido[3,4-d]pyrimidin-4-yl)piperidin-3-ol] here?
**A.** ≤ 2 nM

**Q.** What about the IC50 [2] of the same molecule?
**A.** ≤ 2 nM

**Q.** What about the IC50 [3] of the same molecule?
**A.** ≤ 2 nM

**Q.** What about the IC50 [4] of the same molecule?
**A.** 282 nM

**Q.** What about the IC50 [5] of the same molecule?
**A.** 808 nM

**Q.** And the IC50 [6]?
**A.** 549 nM

**Q.** What about the IC50 [7] of the same molecule?
**A.** 9 nM

**Q.** And the IC50 [8]?
**A.** 2720 nM
